Reference: patent US7687609B2, “Galectin-glycosaminoglycan complex and method for controlling galectin activity” (National Institute of Advanced Industrial Science and …, priority 2006, dated 2010)

What was measured:
[1] = target: T1, Galectin-1 (Homo sapiens, UniProt P09382); experiment: FAC affinity test on galectin-immobilized column; type: binding; conditions: pyridyl-aminated carbohydrate; galectin-1 immobilized 0.8 mg/ml; less than 5 μl = below interaction detection limit
T1 construct: made in house
T1 sequence (P09382 whole entry): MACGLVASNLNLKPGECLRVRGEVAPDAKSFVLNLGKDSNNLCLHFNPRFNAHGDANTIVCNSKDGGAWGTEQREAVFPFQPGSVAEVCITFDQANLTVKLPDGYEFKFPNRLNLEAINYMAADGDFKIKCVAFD
Protocol: (§1) Various galectin molecules-immobilized columns were prepared by the method described by Nakamura S, Yagi F, Totani K, Ito γ and Hirabayashi J in FEBS J., 272, 2784-2799 (2005), using NHS Sepharose (manufactured by Amersham Bioscience) as the carrier for immobilizing galectin molecules and in accordance with the instructions attached thereto (put in parentheses is immobilization concentration, mg galectin/ml carrier).
(§2) Each galectin molecule was immobilized onto the carrier at the following concentration; galectin-1 (0.8 mg/ml), galectin-3 (0.5 mg/ml), galectin-8N (3.6 mg/ml), galectin-8C (4.0 mg/ml), galectin-9N (3.6 mg/ml), galectin-9C (3.0 mg/ml). The carrier on which each galectin was immobilized was charged into a stainless steel miniature column (2 mm in inner diameter, 10 mm in length; manufactured by Shimadzu Corp.).
(§3) A high performance liquid chromatography (HPLC) system was equipped with a galectin molecule-immobilized column, and the test was carried out by the method described in Nakamura S, Yagi F, Totani K, Ito γ and Hirabayashi J in FEBS J., 272, 2784-2799 (2005).
(§4) As the negative control sample, pyridyl-aminated N-acetylglucosamine (PA-GlcNAc, manufactured by Takara Bio, pyridyl-aminated glycosaminoglycan-oligosaccharide sample control) or pyridyl-aminated pullulan (prepared by carrying out pyridylamination of standard pullulan manufactured by Shodex, pyridyl-aminated glycosaminoglycan polysaccharide sample control) was used, and a V−V0 value was calculated from their eluate volume (V0 value) measured by fluorescence detection and the eluate volume (V value) of the sample, namely pyridyl-aminated glycosaminoglycan carbohydrate, and this was used as the index of interaction strength (Protein, Nucleic Acid and Enzyme, 48(8), 1206-1212 (2003)).
(§5) V−V0 values of pyridyl-aminated glycosaminoglycans (HA, CH, DN, NAH, CSA, CSB, CSC, CSD, CSE, KS-I and KS-II) were calculated based on PA-GlcNAc, and V−V0 values of pyridyl-aminated glycosaminoglycan-oligosaccharides (G2K1, G1L1, G4L4, L2L2, L2L4, L4L4, SL2L4 and CH3 to CH12) based on pyridyl-aminated pullulan, respectively.
(§6) In this connection, when the calculated value of the V−V0 value was less than 5 μl, it was regarded as less than the interaction detection limit in this example.

[2] = target: T2, Galectin-3 (Homo sapiens, UniProt P17931); experiment: FAC affinity test on galectin-immobilized column; type: binding; conditions: pyridyl-aminated carbohydrate; galectin-3 immobilized 0.5 mg/ml; less than 5 μl = below interaction detection limit
T2 construct: made in house
T2 sequence (P17931 whole entry): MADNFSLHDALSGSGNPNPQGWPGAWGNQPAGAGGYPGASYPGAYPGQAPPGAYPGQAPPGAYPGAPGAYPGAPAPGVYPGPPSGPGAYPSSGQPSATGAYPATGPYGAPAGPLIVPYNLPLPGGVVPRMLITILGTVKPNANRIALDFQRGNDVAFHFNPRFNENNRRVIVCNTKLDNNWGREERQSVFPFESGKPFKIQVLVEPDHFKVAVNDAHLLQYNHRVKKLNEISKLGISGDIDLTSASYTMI
Protocol: as §1, §2, §3, §4, §5, §6

[3] = target: T3, Galectin-9N (Homo sapiens, UniProt O00182); experiment: FAC affinity test on galectin-immobilized column; type: binding; conditions: pyridyl-aminated carbohydrate; galectin-9N immobilized 3.6 mg/ml; less than 5 μl = below interaction detection limit
T3 construct: N and C respectively represent N-terminal side carbohydrate-recognition domain and C-terminal side carbohydrate-recognition domain; made in house
T3 sequence (O00182 17-148 limits assumed): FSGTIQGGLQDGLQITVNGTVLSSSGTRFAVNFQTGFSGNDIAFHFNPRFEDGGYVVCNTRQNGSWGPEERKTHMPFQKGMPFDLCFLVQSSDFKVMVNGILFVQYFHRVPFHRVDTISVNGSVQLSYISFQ
Protocol: as §1, §2, §3, §4, §5, §6

[4] = target: T4, Galectin-9C (Homo sapiens, UniProt O00182); experiment: FAC affinity test on galectin-immobilized column; type: binding; conditions: pyridyl-aminated carbohydrate; galectin-9C immobilized 3.0 mg/ml; less than 5 μl = below interaction detection limit
T4 construct: N and C respectively represent N-terminal side carbohydrate-recognition domain and C-terminal side carbohydrate-recognition domain; made in house
T4 sequence (O00182 227-355 limits assumed): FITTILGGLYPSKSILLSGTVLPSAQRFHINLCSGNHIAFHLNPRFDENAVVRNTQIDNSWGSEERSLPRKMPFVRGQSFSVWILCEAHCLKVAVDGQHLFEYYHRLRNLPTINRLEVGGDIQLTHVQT
Protocol: as §1, §2, §3, §4, §5, §6

[5] = target: T2, Galectin-3; experiment: FAC competitive inhibition test, binding of galectin-3 with LNnT; conditions: 5.0 nM PA-LNnT; for V2 − V0: V1 − V0 30.6 μl
Protocol: (§7) A model test on a competitive inhibition was carried out by FAC, in which binding of a galectin molecule with a carbohydrate which binds to the galectin molecule is inhibited by a glycosaminoglycan molecule. The FAC was carried out in accordance with the above-described example (1). In addition, as a model carbohydrate which is known to be bound to the galectin molecule, a pyridylamination product of lacto-N-neotetraose (LNnT hereinafter, Gal β1-4 GlcNAc β1-3 Gal β1-4 Glc, purchased from Seikagaku Corporation) was used.
(§8) In the test, 5.0 nM in final concentration of PA-LNnT sample solution was mixed with various concentration of glycosaminoglycan molecule (not pyridyl-aminated, namely an inhibitory carbohydrate) to measure the eluate volume (V2 value) by FAC, and the inhibition ratio (%) was calculated as follows from the eluate volume (V1 value) before the mixing and the eluate volume (V0 value) of a negative control sample. Inhibition ratio (%)=100×(V1−V2)/(V1−V0) Formula 1
(§9) In this connection, the unlabeled (not pyridyl-aminated) CH4, CH6, CH10, HA4 and CSA4 were respectively prepared at Seikagaku Corporation in accordance with a conventionally known method.

[6] = target: T3, Galectin-9N; experiment: FAC competitive inhibition test, binding of galectin-9N with LNnT; conditions: for Inhibition ratio / V2 − V0: 5.0 nM PA-LNnT; for V2 − V0: V1 − V0 20.3 μl
Protocol: as §7, §8, §9

[7] = final conc. 10 μM unlabeled inhibitor
[8] = final conc. 50 μM unlabeled inhibitor
[9] = final conc. 250 μM unlabeled inhibitor
[10] = final conc. 1 μM unlabeled inhibitor
[11] = final conc. 5 μM unlabeled inhibitor

V − V0 Value [1]	V − V0 Value [2]	V − V0 Value [3]	V − V0 Value [4]	Inhibition ratio [5, 7]	V2 − V0 [5, 7]	Inhibition ratio [5, 8]	V2 − V0 [5, 8]	Inhibition ratio [5, 9]	V2 − V0 [5, 9]	Inhibition ratio [6, 10]	V2 − V0 [6, 10]	Inhibition ratio [6, 11]	V2 − V0 [6, 11]	Inhibition ratio [6, 7]	V2 − V0 [6, 7]	Inhibition ratio [6, 8]	V2 − V0 [6, 8]	SMILES	inhibition of binding of galectin-9N with LNnT (in words) ([6]; Table 5)
<5.0 µL	11.8 ± 3.3 µL	171.5 µL	<5.0 µL	38.2%	18.9 µL													CC(=O)N[C@H]1[C@H](O[C@H]2[C@H](O)[C@@H](O)[C@H](O[C@H]3[C@@H](O)[C@@H](CO)O[C@@H](O[C@H]4[C@H](O)[C@@H](O)[C@H](O[C@H]5[C@@H](O)[C@@H](CO)O[C@@H](O[C@H]6[C@H](O)[C@@H](O)[C@H](O[C@H]7[C@@H](O)[C@@H](CO)O[C@@H](O[C@H]8[C@H](O)[C@@H](O)[C@H](O[C@H]9[C@@H](O)[C@@H](CO)OC(O)[C@@H]9NC(C)=O)O[C@@H]8C(=O)O)[C@@H]7NC(C)=O)O[C@@H]6C(=O)O)[C@@H]5NC(C)=O)O[C@@H]4C(=O)O)[C@@H]3NC(C)=O)O[C@@H]2C(=O)O)O[C@H](CO)[C@H](O)[C@@H]1O[C@@H]1O[C@H](C(=O)O)[C@@H](O)[C@H](O)[C@H]1O (stereo partly drawn) [CH10, GlcA β1-3 (GalNAc β1-4 GlcA β1-3)4 GalNAc]	
<5.0 µL	5.8 ± 1.4 µL	33.3 ± 3.0 µL	<5.0 µL	5.2%	29.0 µL													CC(=O)N[C@H]1[C@H](O[C@H]2[C@H](O)[C@@H](O)[C@H](O[C@H]3[C@@H](O)[C@@H](CO)O[C@@H](O[C@H]4[C@H](O)[C@@H](O)[C@H](O[C@H]5[C@@H](O)[C@@H](CO)OC(O)[C@@H]5NC(C)=O)O[C@@H]4C(=O)O)[C@@H]3NC(C)=O)O[C@@H]2C(=O)O)O[C@H](CO)[C@H](O)[C@@H]1O[C@@H]1O[C@H](C(=O)O)[C@@H](O)[C@H](O)[C@H]1O (stereo partly drawn) [CH6, GlcA β1-3 (GalNAc β1-4 GlcA β1-3)2 GalNAc]	
<5.0 µL	<5.0 µL	45.3 ± 4.8 µL		12.7%	26.7 µL	32.0%	20.8 µL	48.0%	15.9 µL	16.7%	16.9 µL	26.1%	15.0 µL	32.5%	13.7 µL	71.4%	5.8 µL	CC(=O)N[C@H]1[C@H](O[C@H]2[C@H](O)[C@@H](O)[C@H](O[C@H]3[C@@H](O)[C@@H](CO)OC(O)[C@@H]3NC(C)=O)O[C@@H]2C(=O)O)O[C@H](CO)[C@H](O)[C@@H]1O[C@@H]1O[C@H](C(=O)O)[C@@H](O)[C@H](O)[C@H]1O (stereo partly drawn) [CH4, GlcA β1-3 GalNAc β1-4 GlcA β1-3 GalNAc]	inhibited by CH4 concentration-dependently
